Source: patent publication US7279468B2, “Integrin ligands” (Abbott GmbH & Co. KG, priority 2000, dated 2007)

Target: T1, integrin αvβ3 (Homo sapiens, UniProt P05106+P06756)
T1 construct: from tissue; host or cells: human placenta
Test: Integrin αvβ3 assay (competition between vitronectin and test substance for binding to solid phase-bound integrin αvβ3)
Settings: competition with human vitronectin, integrin αvβ3 from human placenta, comparison in words only
Procedure: For the identification and assessment of integrin αvβ3 ligands, a test system was used which was based on competition between the natural integrin αvβ3 ligand vitronectin and the test substance for binding to solid phase-bound integrin αvβ3.
• Microtiter plates coated with 250 ng/ml of integrin αvβ3 in 0.05 M NaHCO3 pH 9.2; 0.1 ml/well; • saturation with 1% powdered milk/assay buffer; 0.3 ml/well; 0.5 h/RT • 3× washing with 0.05% Tween 20/assay buffer • test substance in 0.1% powdered milk/assay buffer, 50 μl/well 0 μg/ml or […] of human vitronectin (Boehringer Ingelheim T007) in 0.1% powdered milk/assay buffer, 50 μl/well; 1 h/RT • 3× washing with 0.05% Tween 20/assay buffer • 1 μg/ml of anti human vitronectin antibody coupled to peroxidase (Kordia SAVN-APHRP) in 0.1% powdered milk/assay buffer; 0.1 ml/well; 1 h/RT • 3× washing with 0.05% Tween 20/assay buffer • 0.1 ml/well of peroxidase substrate • stop reaction with 0.1 ml/well of 2 M H2SO4 • measurement of the absorption at 450 nm • Integrin αvβ3: Human placenta is solubilized with Nonidet and integrin αvβ3 affinity-purified on a GRGDSPK matrix (elution with EDTA). […]

With `O=C(O)CC1CCN(CC(=O)NCc2ccc(Nc3nc4ccccc4[nH]3)cc2)C(=O)c2ccccc21` (stereo not shown) [Example II, [2-(2-{[4-(1H-Benzimidazol-2-ylamino)benzyl]amino}-2-oxoethyl)-1-oxo-2,3,4,5-tetrahydro-1H-2-benzazepin-5-yl]acetic acid] the “IC50 values (concentration of the ligand at which 50% of the ligand is displaced)” value was “best result”.
